The record followed here is patent publication US12371454B2, “Cyclic peptide compound having Kras inhibitory action” (priority 2019, dated 2025).

What is called IC50 is the concentration needed to halve the response being measured.

Each structure is given as a SMILES string. Starred links: 1 amine or outer side, 2 acyl side, 3 side chain; linkers in the order of their positions; H or OH if unused. Positions of bridges follow the written chain, without caps; N, C: chain ends. Non-standard residues stand in square brackets, D forms with d. Residues, ends and D or L forms follow the SMILES beside them. *: point of attachment. hPhe(3,5-F2-4-CF3) = N[C@@H](CCc1cc(F)c(C(F)(F)F)c(F)c1)C(=O)O; hPhe(3-Cl-4-CF3) = N[C@@H](CCc1ccc(C(F)(F)F)c(Cl)c1)C(=O)O; NMePhe(4-CF3) = CN[C@@H](Cc1ccc(C(F)(F)F)cc1)C(=O)O; NMeAbu(4,4,4-F3) = CN[C@@H](CC(F)(F)F)C(=O)O; NMePhe(4-Cl) = CN[C@@H](Cc1ccc(Cl)cc1)C(=O)O; NMePhe(4-Me) = CN[C@@H](Cc1ccc(C)cc1)C(=O)O; X54 = O=C([C@H](Cc1cccc(Br)c1F)N[*:1])[*:2]; Phe(3-I) = N[C@@H](Cc1cccc(I)c1)C(=O)O; Phe(4-F) = N[C@@H](Cc1ccc(F)cc1)C(=O)O; Pro(4,4-F2) = O=C(O)[C@@H]1CC(F)(F)CN1; NMeGly(cBu) = CN[C@H](C(=O)O)C1CCC1; NMeY = CN[C@@H](Cc1ccc(O)cc1)C(=O)O; NMeCha = CN[C@@H](CC1CCCCC1)C(=O)O; NMeChg = CN[C@H](C(=O)O)C1CCCCC1; NMeD = CN[C@@H](CC(=O)O)C(=O)O; NMeL = CN[C@@H](CC(C)C)C(=O)O; NMeNva = CCC[C@H](NC)C(=O)O; NMeAbu = CC[C@H](NC)C(=O)O; NMeA = CN[C@@H](C)C(=O)O; NMeAib = CNC(C)(C)C(=O)O; Nle = CCCC[C@H](N)C(=O)O; Piperidide = C1CCN(*)CC1; Pra = C#CC[C@H](N)C(=O)O; Pyrrolidide = C1CCN(*)C1; Ac5c = NC1(C(=O)O)CCCC1; Aze = O=C(O)[C@@H]1CCN1; CF3 = FC(F)(F)*; Sar = CNCC(=O)O

T1 sequence (P01116 1-188 isoform P01116-2 G12D): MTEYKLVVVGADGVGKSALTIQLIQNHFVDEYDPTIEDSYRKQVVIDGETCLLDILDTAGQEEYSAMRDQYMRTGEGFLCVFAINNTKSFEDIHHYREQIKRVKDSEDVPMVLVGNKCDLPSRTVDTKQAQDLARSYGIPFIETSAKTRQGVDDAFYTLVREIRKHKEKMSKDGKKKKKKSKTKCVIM

This assay has as its target T1, Kras and SOS1 (biotin-tagged human Kras loaded with GDP, His-tagged human SOS1) (Homo sapiens, UniProt P01116, G12D).
T1 construct: made in house; host or cells: E. coli (stated for Kras only)
The assay can be described thus: Protein-protein interaction inhibition between Kras and SOS1 (KrasGl2D-SOS PPI) using AlphaScreen. It is filed as binding. Particulars: AlphaScreen; biotin-tagged human Kras loaded with GDP, His-tagged human SOS1; read-out: KRAS G12D-SOS PPI IC50. The method, boiled down:
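Kras was produced in E. coli, purified, then loaded with GDP. It was paired via streptavidin acceptor beads with His-SOS1 held on nickel donor beads, and proximity signal at 520-620 nm was read after 680 nm illumination.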
Background: Alpha assays give light when donor and acceptor beads are brought close together.
On to `CC[C@H](C)[C@@H]1NC(=O)[C@H](C2CCC2)N(C)C(=O)C[C@@H](C(=O)N2CCCC2)N(C)C(=O)[C@H](C2CCCCC2)N(C)C(=O)C2(CCCC2)NC(=O)[C@@H]2CC(F)(F)CN2C(=O)[C@H](CCc2cc(F)c(C(F)(F)F)c(F)c2)NC(=O)CN(C)C(=O)[C@H](CC2CCCCC2)N(C)C(=O)CN(C)C(=O)CN(C)C1=O` [Compound 1295] ([NMeGly(cBu)]I[Sar][Sar][NMeCha][Sar][hPhe(3,5-F2-4-CF3)][Pro(4,4-F2)][Ac5c][NMeChg][NMeD]-Pyrrolidide; lactam N-11), for which the IC50 came to 0.5 nM. On to `CCC[C@H]1C(=O)N[C@@H]([C@@H](C)CC)C(=O)N(C)CC(=O)N(C)CC(=O)N(C)[C@@H](Cc2ccc(C)cc2)C(=O)N(C)CC(=O)N[C@@H](CCc2ccc(C(F)(F)F)c(Cl)c2)C(=O)N2CC(F)(F)C[C@H]2C(=O)NC2(CCCC2)C(=O)N(C)[C@@H](C2CCCCC2)C(=O)N(C)[C@H](C(=O)N2CCCC2)CC(=O)N1C` [Compound 1296] ([NMeNva]I[Sar][Sar][NMePhe(4-Me)][Sar][hPhe(3-Cl-4-CF3)][Pro(4,4-F2)][Ac5c][NMeChg][NMeD]-Pyrrolidide; lactam N-11), for which the IC50 is 0.59 nM. On to `C#CC[C@@H]1NC(=O)[C@H](Cc2cccc(I)c2)NC(=O)CN(C)C(=O)[C@H](Cc2ccc(OC(F)(F)F)cc2)N(C)C(=O)[C@@H]2CCN2C(=O)CN(C)C(=O)[C@H]([C@@H](C)CC)NC(=O)[C@H](CC(C)C)N(C)C(=O)C[C@@H](C(=O)N2CCCCC2)N(C)C(=O)[C@H](CC(C)C)NC(=O)C(C)(C)N(C)C1=O` [Compound 1298] ([NMeL]I[Sar][Aze][NMeY](CF3)[Sar][Phe(3-I)][Pra][NMeAib]L[NMeD]-Piperidide; lactam N-11), for which the IC50 amounted to 28 nM. For the compound `CC[C@H](C)[C@@H]1NC(=O)[C@H](CC(F)(F)F)N(C)C(=O)C[C@@H](C(=O)N2CCCC2)N(C)C(=O)[C@H](C2CCCCC2)N(C)C(=O)C2(CCCC2)NC(=O)[C@@H]2CC(F)(F)CN2C(=O)[C@H](CCc2cc(F)c(C(F)(F)F)c(F)c2)NC(=O)CN(C)C(=O)[C@H](Cc2ccc(C(F)(F)F)cc2)N(C)C(=O)CN(C)C(=O)CN(C)C1=O` [Compound 1303] ([NMeAbu(4,4,4-F3)]I[Sar][Sar][NMePhe(4-CF3)][Sar][hPhe(3,5-F2-4-CF3)][Pro(4,4-F2)][Ac5c][NMeChg][NMeD]-Pyrrolidide; lactam N-11), the IC50 worked out at 0.72 nM. On to `CCCC[C@@H]1NC(=O)[C@H](Cc2cccc(Br)c2F)NC(=O)CN(C)C(=O)[C@H](Cc2ccc(OC)cc2)N(C)C(=O)[C@@H]2CCN2C(=O)[C@H](C)N(C)C(=O)[C@H]([C@@H](C)CC)NC(=O)[C@H](CC)N(C)C(=O)C[C@@H](C(=O)N2CCCCC2)N(C)C(=O)[C@H](CC(C)C)NC(=O)C(C)(C)N(C)C1=O` [Compound 1304] ([NMeAbu]I[NMeA][Aze][NMeY](Me)[Sar][X54][Nle][NMeAib]L[NMeD]-Piperidide; lactam N-11), for which the IC50 is 85 nM. In the case of `CCCC[C@@H]1NC(=O)[C@H](Cc2ccc(F)cc2)NC(=O)CN(C)C(=O)[C@H](Cc2ccc(Cl)cc2)N(C)C(=O)CN(C)C(=O)CN(C)C(=O)[C@H]([C@@H](C)CC)NC(=O)[C@H](CC(C)C)N(C)C(=O)C[C@@H](C(=O)N2CCCCC2)N(C)C(=O)[C@H](CC(C)C)NC(=O)C(C)(C)N(C)C1=O` [Compound 1305] ([NMeL]I[Sar][Sar][NMePhe(4-Cl)][Sar][Phe(4-F)][Nle][NMeAib]L[NMeD]-Piperidide; lactam N-11), the IC50 turned out to be 240 nM. As to `CCC[C@H]1C(=O)N[C@@H]([C@@H](C)CC)C(=O)N(C)CC(=O)N(C)CC(=O)N(C)[C@@H](Cc2ccc(C)cc2)C(=O)N(C)CC(=O)N[C@@H](CCc2cc(F)c(C(F)(F)F)c(F)c2)C(=O)N2CC(F)(F)C[C@H]2C(=O)NC2(CCCC2)C(=O)N(C)[C@@H](C2CCCCC2)C(=O)N(C)[C@H](C(=O)N2CCCC2)CC(=O)N1C` [Compound 1306] ([NMeNva]I[Sar][Sar][NMePhe(4-Me)][Sar][hPhe(3,5-F2-4-CF3)][Pro(4,4-F2)][Ac5c][NMeChg][NMeD]-Pyrrolidide; lactam N-11), the IC50 worked out at 0.5 nM.
